As a reminder, the EC50 is the concentration at which the effect is half-maximal. The low end stands for greater potency, the high end for weaker potency. What is called Emax is the size of the effect at its maximum, as opposed to the concentration needed.

In one test the test system is ATDC5 cells. Nature of the test: Chondrogenesis activity assay in ATDC5 cells (collagen type II induction, immunofluorescence). The class given is cell-based, mouse. The settings on record: Mus musculus; for EC50: collagen type II induction in ATDC5 cells, concentration reaching 50% of maximum induction; for Emax: maximum percent induction of collagen type II relative to internal reference compound at 10 μM, ATDC5 cells. The gist of the method:
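Collagen type II was stained in fixed, permeabilized cells with an Alexa Fluor 488 secondary and measured by high-content fluorescence imaging. ATDC5 cells had 4 days at 37 °C in insulin-supplemented differentiation medium with compound, typically 40 nM–10 μM, 0.1% DMSO. DMSO wells and a 10 μM internal reference compound were used for normalization.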

Test [1] deals with primary human chondrocyte pellet cultures. Nature of the test: Chondrogenesis activity assay in primary human chondrocyte pellet cultures (proteoglycan (aggrecan) induction, Blyscan assay). As to conditions: for EC50: 336 h, proteoglycan (aggrecan) induction, primary human chondrocyte pellets, 2 weeks culture; for Emax: Homo sapiens, Chondrocyte, maximum percent proteoglycan (aggrecan) induction relative to the internal reference compound at 10 μM. It is filed as cell-based. On the procedure: B) Chondrogenesis Activity Assay in Primary Human Chondrocyte Pellet Cultures
In this assay human articular chondrocytes are harvested by enzymatic digestion from articular cartilage and passaged several times to dedifferentiate the chondrocytes and to propagate the cells. Cells are cultured as cell pellets in the presence of the compounds of the invention over 2 weeks, and the chondrogenic differentiation is quantified by the production of the chondrogenic marker aggrecan (proteoglycan).
In detail, primary chondrocytes were harvested by enzymatic digestion from cartilage of osteoarthritis patients undergoing knee joint replacement surgery, and cultured in vitro. Cells were passaged one or two times and aliquots were cryopreserved. To initiate chondrogenesis experiments, cell aliquots were thawn, cultured in Chondrocyte Growth Medium (CGM, Lonza, #CC-3216) and passaged twice to further propagate and dedifferentiate cells. Pellet cultures were initiated by seeding 2.5×10E5 cells per well into a 96-well deep well plate in 600 μl chondrocyte differentiation medium consisting of Dulbecco's Modified Eagle Medium (DMEM, Invitrogen, #41966), 1×ITS-solution (Insulin/Transferrin/sodium selenite; 100× solution: Invitrogen, #51500056), 5 μg/mL linoleic acid (Sigma, #L1012-1G), 1× nonessential amino acids (100× solution: Invitrogen, #11140); 10 nM Dexamethasone, 2 ng/ml TGF-β1 (transforming growth factor β1) and 10 μg/ml ascorbic acid. Cells were spun to pellets by centrifugation (10 min, 400×g). Test compounds dissolved in DMSO were added to yield increasing compound concentrations, typically from 40 nM to 10 μM, and a final DMSO concentration of 0.1%, and the cell pellets cultured at 37° C., and 5% CO2 for 2 weeks. On each 96-well plate, control wells containing no test compound but the same concentration of DMSO, i.e. untreated cells, were included and used as reference for the determination of the effect of the test compounds on the cells, and wells containing an internal reference compound at a concentration of 10 μM were included and used as positive control and for standardizing the results. Chondrocyte differentiation medium and the compounds were exchanged twice weekly until harvest of the pellets.
For harvest of the pellets, medium was removed and the pellet was homogenized by enzymatic digestion. 100 μl of protease solution containing 0.4 mg/ml papain, 50 mM sodium phosphate, 4 mM EDTA and 0.48 mg/ml L-cysteine was added to the pellet in each well of a 96-well plate, the plate was sealed with a plate sealer foil (SILVERseal, Greiner Bio-One) and incubated for 4 to 6 hours at 65° C. with agitation.
The concentration of proteoglycan (aggrecan) was determined by quantification of the sulfated glycosaminoglycan side chains of aggrecan using the Blyscan assay (Kit from Biocolor). Aliquots of the papain-digest were transferred to 400 μl of Blyscan dye solution and incubated at room temperature for 45 min with agitation (1200 rpm). The mixture was centrifuged at 3760×g for 45 min, the supernatant was discarded, and the stained pellet was redissolved in 400 μl of Blyscan dissociation reagent by rotation until the precipitate completely resolved. Optical density was measured at 656 nm using a Tecan Saphire2 instrument, and the amount of proteoglycan determined against a standard curve with chondroitin-4-sulfate.
Induction of proteoglycan (aggrecan) was calculated for each compound concentration relative to the control (untreated cells, i.e. no test compound added), and an EC50 value (effective concentration 50 (in μM (micromollliter)), i.e. the compound concentration at which the effect of the compound on proteoglycan (aggrecan) induction reaches 50% of the maximum induction) was calculated using a sigmoidal signal fit procedure. […]

The structures appear in SMILES notation. A value given as a limit tells only on which side of the number the result lay.

Turning to `Cc1nccc2c1[nH]c1c(-c3ccc4c(c3)OC(C)(C)C4)cc(Cl)cc12` [Example 195, 6-Chloro-8-(2,2-dimethyl-2,3-dihydro-benzofuran-6-yl)-1-methyl-9H-pyrido[3,4-b]indole], in the test on ATDC5 cells, the EC50 was over 10 µM and the maximum response (Emax) was under 20%. Moreover, in test [1], the EC50 was determined as 14 µM and the maximum response (Emax) is under 40%.

Turning to `Cc1nccc2c1[nH]c1c(-c3c[nH]nc3Cc3ccccc3)cc(Cl)cc12` [Example 199, 8-(3-Benzyl-1H-pyrazol-4-yl)-6-chloro-1-methyl-9H-pyrido[3,4-b]indole], in the test with ATDC5 cells, the EC50 is over 10 µM and the Emax is under 20%. Further, in test [1], the midpoint of the response, the EC50, lay at 22 µM and the Emax is under 40%.

In the test with ATDC5 cells, `COCc1cc(-c2cc(Cl)cc3c2[nH]c2c(C)nccc23)ccc1OC` [Example 200, 6-Chloro-8-(4-methoxy-3-methoxymethyl-phenyl)-1-methyl-9H-pyrido[3,4-b]indole] came in with an EC50 of over 10 µM and an Emax of 20 to 50%. In test [1], this compound returned an EC50 of 4.4 µM and an Emax of 100 to 200%.

For the compound `COc1ccc(-c2cc(Cl)cc3c2[nH]c2c(C)nccc23)cc1Cl` [Example 206, 6-Chloro-8-(3-chloro-4-methoxy-phenyl)-1-methyl-9H-pyrido[3,4-b]indole], in the test with ATDC5 cells, the concentration giving a half-maximal response (EC50) was over 10 µM and the maximal effect (Emax) lay within 20 to 50%. In test [1], a half-maximal response (EC50) required 19 µM and the maximal response (Emax) is under 40%.

With `CCn1c2c(-c3cnn(C)c3)cc(Br)cc2c2ccnc(C)c21` [Example 209, 6-Bromo-9-ethyl-1-methyl-8-(1-methyl-1H-pyrazol-4-yl)-9H-pyrido[3,4-b]indole], the EC50 with ATDC5 cells came out at 0.28 µM; in test [1], 2.6 µM. For the same compound, the values for the Emax (with ATDC5 cells; in test [1]) were over 80% and over 200%, respectively.

Regarding `CCc1cc2c([nH]c3c(-c4ccc(OCCn5cccn5)cc4)cc(Br)cc32)c(C)n1` [Example 212, 6-Bromo-3-ethyl-1-methyl-8-[4-(2-pyrazol-1-yl-ethoxy)-phenyl]-9H-pyrido[3,4-b]indole], the EC50 with ATDC5 cells is over 3.3 µM; in test [1], 8.9 µM. The maximum response (Emax) was under 20% in the test on ATDC5 cells and under 40% in test [1].

Regarding `Cc1nccc2c1[nH]c1c(-c3ccnc(N4CCNCC4)c3)cc(Cl)cc12` [Example 213, 6-Chloro-1-methyl-8-(2-piperazin-1-yl-pyridin-4-yl)-9H-pyrido[3,4-b]indole], in the test with ATDC5 cells, the 50% effective concentration (EC50) is over 1.1 µM and the maximal effect (Emax) is under 20%. In test [1], this compound came in with a concentration for a half-maximal effect (EC50) of 1.2 µM and a maximal effect (Emax) of 100 to 200%.

Turning to `Cc1nccc2c1[nH]c1c(-c3ccnc(N4CCN(C)CC4)c3)cc(Cl)cc12` [Example 214, 6-Chloro-1-methyl-8-[2-(4-methyl-piperazin-1-yl)-pyridin-4-yl]-9H-pyrido[3,4-b]indole], in the test with ATDC5 cells, the EC50 was over 3.3 µM and the Emax is under 20%. In test [1], this compound showed an EC50 of 1.3 µM and a maximum response (Emax) of 100 to 200%.

As for `CCc1cc2c3cc(Br)cc(-c4cnn(C)c4)c3n(CC)c2c(C)n1` [Example 216, 6-Bromo-3,9-diethyl-1-methyl-8-(1-methyl-1H-pyrazol-4-yl)-9H-pyrido[3,4-b]indole], in the test with ATDC5 cells, the concentration giving a half-maximal response (EC50) is over 10 µM and the Emax was under 20%. In test [1], this compound registered an EC50 of 0.99 µM and a maximal response (Emax) of over 200%.

For the compound `COc1ccc(-c2cc(Br)cc3c2[nH]c2c(C)nc(C)cc23)cc1` [Example 217, 6-Bromo-8-(4-methoxy-phenyl)-1,3-dimethyl-9H-pyrido[3,4-b]indole], the values for the EC50 (in the test with ATDC5 cells; in test [1]) were over 3.3 µM and 4.9 µM, respectively. Also, the Emax with ATDC5 cells was 20 to 50%; in test [1], over 200%.

In the test with ATDC5 cells, `COc1ccc(-c2cc(Cl)cc3c2[nH]c2c(C)nccc23)nc1N` [Example 218, 6-(6-Chloro-1-methyl-9H-pyrido[3,4-b]indol-8-yl)-3-methoxy-pyridin-2-ylamine] displayed an EC50 of over 1.1 µM and an Emax of under 20%. In test [1], the 50% effective concentration (EC50) worked out at 40 µM and the Emax was under 40%.

For `COc1cc(-c2cc(Cl)cc3c2[nH]c2c(C)nccc23)ccc1OCc1cccc(F)n1` [Example 223, 6-Chloro-8-[4-(6-fluoro-pyridin-2-ylmethoxy)-3-methoxy-phenyl]-1-methyl-9H-pyrido[3,4-b]indole], in the test with ATDC5 cells, the EC50 is over 3.3 µM and the Emax is 20 to 50%. In test [1], this compound came in with an EC50 of 27 µM and an Emax of under 40%.

Take `Cc1nccc2c1[nH]c1c(-c3ccc(OCC4CCN(C)C4)cc3)cc(Cl)cc12` (centres unmarked) [Example 228, 6-Chloro-1-methyl-8-[4-(1-methyl-pyrrolidin-3-ylmethoxy)-phenyl]-9H-pyrido[3,4-b]indole]: in the test with ATDC5 cells, the EC50 worked out at 0.15 µM and the maximum response (Emax) lay in the range of 50 to 80%. Moreover, in test [1], the EC50 was 0.14 µM and the Emax was in the range of 100 to 200%.

Turning to `Cc1nccc2c1[nH]c1c(-c3cccc(NC(=O)Nc4ccc(F)cc4F)c3)cc(Cl)cc12` [Example 230, 1-[3-(6-Chloro-1-methyl-9H-pyrido[3,4-b]indol-8-yl)-phenyl]-3-(2,4-difluoro-phenyl)-urea], in the test on ATDC5 cells, the concentration giving a half-maximal response (EC50) is over 3.3 µM and the Emax is under 20%. In test [1], the concentration for a half-maximal effect (EC50) is 21 µM and the Emax was under 40%.

As to `Cc1nccc2c1[nH]c1c(-c3ccc4c(c3)CC(C)(C)O4)cc(Cl)cc12` [Example 236, 6-Chloro-8-(2,2-dimethyl-2,3-dihydro-benzofuran-5-yl)-1-methyl-9H-pyrido[3,4-b]indole], the values for the EC50 (in the test with ATDC5 cells; in test [1]) were over 3.3 µM and 4.6 µM, respectively. For the same compound, the Emax is under 20% in the test on ATDC5 cells and over 200% in test [1].

In the test with ATDC5 cells, `Cc1nccc2c1[nH]c1c(-c3ccc(CN)cc3)cc(Cl)cc12` [Example 241, 4-(6-Chloro-1-methyl-9H-pyrido[3,4-b]indol-8-yl)-benzylamine] had an EC50 of over 1.1 µM and a maximal effect (Emax) of 20 to 50%. In test [1], it took 1.5 µM to reach a half-maximal effect (EC50) and the Emax was 100 to 200%.

For the compound `CCn1c2c(-c3cnn(Cc4ccccn4)c3)cc(Cl)cc2c2ccnc(C)c21` [Example 244, 6-Chloro-9-ethyl-1-methyl-8-(1-pyridin-2-ylmethyl-1H-pyrazol-4-yl)-9H-pyrido[3,4-b]indole], the values for the concentration giving a half-maximal response (EC50) (in the test with ATDC5 cells; in test [1]) were 1.1 µM and 4.9 µM, respectively. The Emax with ATDC5 cells is over 80%; in test [1], over 200%.

For `Cc1nccc2c1[nH]c1c(-c3ccnc(F)c3Br)cc(Cl)cc12` [Example 245, 8-(3-Bromo-2-fluoro-pyridin-4-yl)-6-chloro-1-methyl-9H-pyrido[3,4-b]indole], the EC50 in the test with ATDC5 cells was over 1.1 µM; in test [1], 10 µM. The Emax is under 20% in the test with ATDC5 cells and 40 to 100% in test [1].

In the test with ATDC5 cells, `Cc1nccc2c1[nH]c1c(-c3cccc(N4CCOCC4)c3)cc(Cl)cc12` [Example 247, 6-Chloro-1-mehtyl-8-(3-morpholin-4-yl-phenyl)-9H-pyrido[3,4-b]indole] came in with an EC50 of over 3.3 µM and a maximum response (Emax) of under 20%. Further, in test [1], the response was half-maximal at 3.8 µM (EC50) and the maximal effect (Emax) was over 200%.

On to `Cc1nccc2c1[nH]c1c(-c3cccc(C=O)c3)cc(Cl)cc12` [Example 250, 3-(6-Chloro-1-methyl-9H-pyrido[3,4-b]indol-8-yl)-benzaldehyde], for which the EC50 is over 3.3 µM in the test with ATDC5 cells and 4.9 µM in test [1]. Also, the maximal response (Emax) with ATDC5 cells fell in the range of 50 to 80%; in test [1] it was 100 to 200%.

These data come from patent US12275733B2, “Substituted pyrido[3,4-b]indoles for the treatment of cartilage disorders” (Sanofi, priority 2016, dated 2025).
